The source of these data is publication PMC7785020, “A unique hormonal recognition feature of the human glucagon-like peptide-2 receptor” (Cell Research, 2020).

The target in assay [1] is T1, GLP-2R mutant ECL1 (poly-alanine) (Homo sapiens, UniProt O95838, D244A/DELINS236-257AAAAAAAAAAAAAAAAAAAAAA/E246A/E255A/G248A/K241A/L253A/M250A/M256A/N237A/N245A/N247A/P243A/R242A/S238A/S240A/S251A/S254A/S257A/W249A/Y236A/Y239A/Y252A).
T1 construct: WT (1–553); expressed in transfected cells; host or cells: COS-7
Put plainly: radioligand competition binding, ECL1 (poly-alanine). The note with it: COS-7, ECL1 (residues 236–257) substituted by poly-alanine; [^125I]GLP-2(1–33, M10Y) 10–15 pM, 4 h, 4 °C; mean ± SEM, n ≥ 3 in duplicate. The protocol:
A stepwise oxidation reaction was performed by addition of 6 aliquots of 5 µL ChloramineT (30 µL/mL) with a 1-min interval during constant stirring. The reaction was terminated by the addition of 400 µL phase A (0.1% trifluoracetic acid) before being fractionated into 1 mL volume by reverse-phase high-performance liquid chromatography (RP-HPLC, Waters 600 SimiPrep system) on a C18 column. The iodinated protein was […] by increasing concentrations of phase B (Acetonitrile + 0.1% TFA) and tested for competitive binding ability.
One day before transfection, the COS-7 cells were seeded in 75 cm^2 culture flasks (3 million cells/flask) in DMEM, containing 3.9 g/L NaHCO3 and supplemented with 10% FBS, 1% L-glutamine, 180 units/mL penicillin and 45 µg/mL streptomycin. […] Following 24-h incubation, the cells were transferred to Costa® microtiter plates (150,000 cells/well, PerkinElmer) to achieve a 5%–10% specific binding. Forty-eight hours after transfection, the cells were washed twice in binding buffer (50 mM HEPES, pH 7.4, supplemented with 1 mM CaCl2, 5 mM MgCl2 and 0.5% (w/v) BSA) and incubated for 15 min at 4 °C. […] The cells were then washed twice in binding buffer (4 °C), lysed and counted for radioactivity using a Wallac Gamma Counter (PerkinElmer).
On the technique in general: Displacement assays read how much labelled ligand stays bound in the presence of the test substance.

The next assay addresses T2, GLP-2R W340^5.36A (Homo sapiens, UniProt O95838, W340A).
T2 sequence (O95838 1-553 W340A): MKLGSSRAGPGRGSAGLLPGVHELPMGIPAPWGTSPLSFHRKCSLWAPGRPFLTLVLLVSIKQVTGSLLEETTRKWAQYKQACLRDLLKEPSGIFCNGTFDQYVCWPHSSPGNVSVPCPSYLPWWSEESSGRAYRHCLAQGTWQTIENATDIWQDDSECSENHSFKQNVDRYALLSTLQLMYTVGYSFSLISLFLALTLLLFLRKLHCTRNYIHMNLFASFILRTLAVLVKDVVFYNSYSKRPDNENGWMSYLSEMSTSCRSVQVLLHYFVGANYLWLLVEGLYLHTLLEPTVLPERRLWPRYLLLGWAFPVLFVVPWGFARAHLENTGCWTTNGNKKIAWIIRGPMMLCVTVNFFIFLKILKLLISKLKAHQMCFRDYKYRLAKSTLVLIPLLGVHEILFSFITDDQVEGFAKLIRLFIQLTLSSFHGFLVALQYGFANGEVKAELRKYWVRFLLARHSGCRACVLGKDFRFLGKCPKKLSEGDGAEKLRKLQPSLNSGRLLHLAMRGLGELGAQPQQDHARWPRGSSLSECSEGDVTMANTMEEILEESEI
Briefly: cAMP accumulation, W340^5.36A. Type of assay: cell-based. The arrangement: WT (1–553); expressed in transfected cells; HEK 293T (cAMP). The note with it: Table S3, W340A; HEK 293T, 30 min, RT; mean ± SEM, n ≥ 3 in duplicate; read-out: cAMP Emax (% WT). The method, then:
HEK 293T cells were cultured in Dulbecco’s Modified Eagle’s Medium (DMEM) (Gibco, Waltham, USA) supplemented with 10% (v/v) fetal bovine serum (FBS) (Gibco) and 1% (v/v) sodium pyruvate (Gibco) at 37 °C, 5% CO2 in a humidified incubator. They were seeded onto 6-well cell culture plates and transiently transfected with different GLP-2R constructs using Lipofectamine 2000 transfection reagent (Invitrogen, Carlsbad, CA, USA). After 24 h, the transfected cells were seeded onto 384-well microtiter plates (3000 cells per well) in HBSS supplemented with 5 mM HEPES, 0.1% (w/v) bovine serum albumin (BSA) and 0.5 mM 3-isobutyl-1- methylxanthine, and stimulated with increasing concentrations of GLP-2 for 30 min at RT. Eu and Ulight were diluted by cAMP detection buffer and added to the plates separately to terminate the reaction. Plates were incubated at RT for 60 min before measuring the fluorescence intensity at 620 nm and […] by an EnVision multilabel plate reader (PerkinElmer, Boston, USA).
For orientation: cAMP levels reflect the balance of adenylyl cyclase and phosphodiesterase activity.

For `CC[C@H](C)[C@H](NC(=O)[C@H](Cc1ccccc1)NC(=O)[C@H](CC(=O)O)NC(=O)[C@H](CCCNC(=N)N)NC(=O)[C@H](C)NC(=O)[C@H](C)NC(=O)[C@H](CC(C)C)NC(=O)[C@H](CC(N)=O)NC(=O)[C@H](CC(=O)O)NC(=O)[C@H](CC(C)C)NC(=O)[C@@H](NC(=O)[C@@H](NC(=O)[C@H](CC(N)=O)NC(=O)[C@H](CCSC)NC(=O)[C@H](CCC(=O)O)NC(=O)[C@H](CC(=O)O)NC(=O)[C@H](CO)NC(=O)[C@H](Cc1ccccc1)NC(=O)[C@H](CO)NC(=O)CNC(=O)[C@H](CC(=O)O)NC(=O)[C@H](C)NC(=O)[C@@H](N)Cc1c[nH]cn1)[C@@H](C)O)[C@@H](C)CC)C(=O)N[C@@H](CC(N)=O)C(=O)N[C@@H](Cc1c[nH]c2ccccc12)C(=O)N[C@@H](CC(C)C)C(=O)N[C@H](C(=O)N[C@@H](CCC(N)=O)C(=O)N[C@H](C(=O)N[C@@H](CCCCN)C(=O)N[C@H](C(=O)N[C@H](C(=O)N[C@@H](CC(=O)O)C(=O)O)[C@@H](C)O)[C@@H](C)CC)[C@@H](C)O)[C@@H](C)CC` [Human GLP-2 (1–33)], in assay [1], the “% Binding of WT” value was determined as 3.0 ± 1.1 %. For the same compound, the Emax on GLP-2R W340^5.36A is 107 ± 3.6%.

In general, Emax refers to the maximal effect, on the per cent scale that the assay sets.
